Legend:
Assay type in all cases: functional
[1] = tested on: A498; test: Cytotoxicity against Homo sapiens (human) A498 cells after 48 hr by sulforhodamine B assay; conditions: A498, 48 h
[2] = tested on: ACHN; test: Cytotoxicity against Homo sapiens (human) ACHN cells after 48 hr by sulforhodamine B assay; conditions: for CC50: read-out: LC50 (the source's name)
[3] = tested on: 786-0; test: Cytotoxicity against Homo sapiens (human) 786-0 cells after 48 hr by sulforhodamine B assay; conditions: 786-0, 48 h
[4] = tested on: SK-OV-3; test: Cytotoxicity against Homo sapiens (human) SKOV3 cells after 48 hr by sulforhodamine B assay; conditions: SK-OV-3, 48 h
[5] = tested on: OVCAR-8; test: Cytotoxicity against Homo sapiens (human) OVCAR8 cells after 48 hr by sulforhodamine B assay; conditions: OVCAR-8, 48 h
[6] = tested on: OVCAR-5; test: Cytotoxicity against Homo sapiens (human) OVCAR5 cells after 48 hr by sulforhodamine B assay; conditions: OVCAR-5, 48 h; for CC50: read-out: LC50 (the source's name)
[7] = tested on: SK-MEL-28; test: Cytotoxicity against Homo sapiens (human) SK-MEL-28 cells after 48 hr by sulforhodamine B assay; conditions: SK-MEL-28, 48 h
[8] = tested on: LOX IMVI; test: Cytotoxicity against Homo sapiens (human) LOXIMVI cells after 48 hr by sulforhodamine B assay
[9] = tested on: M14; test: Cytotoxicity against Homo sapiens (human) M14 cells after 48 hr by sulforhodamine B assay; conditions: M14, 48 h
[10] = tested on: SNB-75; test: Cytotoxicity against Homo sapiens (human) SNB75 cells after 48 hr by sulforhodamine B assay; conditions: SNB-75, 48 h; for CC50: read-out: LC50 (the source's name)
[11] = tested on: SNB-19; test: Cytotoxicity against Homo sapiens (human) SNB19 cells after 48 hr by sulforhodamine B assay; conditions: SNB-19, 48 h
[12] = tested on: T47D; test: Cytotoxicity against Homo sapiens (human) T47D cells after 48 hr by sulforhodamine B assay
[13] = tested on: BT-549; test: Cytotoxicity against Homo sapiens (human) BT549 cells after 48 hr by sulforhodamine B assay; conditions: BT-549, 48 h
[14] = tested on: Hs-578T; test: Cytotoxicity against Homo sapiens (human) Hs 578T cells after 48 hr by sulforhodamine B assay
[15] = tested on: DU-145; test: Cytotoxicity against Homo sapiens (human) DU145 cells after 48 hr by sulforhodamine B assay; conditions: DU-145, 48 h
[16] = tested on: MCF7; test: Cytotoxicity against Homo sapiens (human) MCF7 cells after 48 hr by sulforhodamine B assay; conditions: MCF7, 48 h
[17] = tested on: UO-31; test: Cytotoxicity against Homo sapiens (human) UO31 cells after 48 hr by sulforhodamine B assay; conditions: UO-31, 48 h
[18] = tested on: TK-10; test: Cytotoxicity against Homo sapiens (human) TK10 cells after 48 hr by sulforhodamine B assay; conditions: TK-10, 48 h; for CC50: read-out: LC50 (the source's name)
[19] = tested on: SF-295; test: Cytotoxicity against Homo sapiens (human) SF295 cells after 48 hr by sulforhodamine B assay; conditions: SF-295, 48 h; for CC50: read-out: LC50 (the source's name)
[20] = tested on: SF-268; test: Cytotoxicity against Homo sapiens (human) SF268 cells after 48 hr by sulforhodamine B assay; conditions: SF-268, 48 h; for CC50: read-out: LC50 (the source's name)
[21] = tested on: SW-620; test: Cytotoxicity against Homo sapiens (human) SW620 cells after 48 hr by sulforhodamine B assay; conditions: SW-620, 48 h; for CC50: read-out: LC50 (the source's name)
[22] = tested on: HCT-15; test: Cytotoxicity against Homo sapiens (human) HCT15 cells after 48 hr by sulforhodamine B assay; conditions: HCT-15, 48 h; for CC50: read-out: LC50 (the source's name)
[23] = tested on: NCI-H460; test: Cytotoxicity against Homo sapiens (human) NCI-H460 cells after 48 hr by sulforhodamine B assay; conditions: NCI-H460, 48 h; for CC50: read-out: LC50 (the source's name)
[24] = tested on: HOP-92; test: Cytotoxicity against Homo sapiens (human) HOP92 cells after 48 hr by sulforhodamine B assay; conditions: HOP-92, 48 h; for CC50: read-out: LC50 (the source's name)
[25] = tested on: RPMI-8226; test: Cytotoxicity against Homo sapiens (human) RPMI8226 cells after 48 hr by sulforhodamine B assay; conditions: RPMI-8226, 48 h; for CC50: read-out: LC50 (the source's name)
[26] = tested on: CCRF-CEM; test: Cytotoxicity against Homo sapiens (human) CCRF-CEM cells after 48 hr by sulforhodamine B assay; conditions: for CC50: read-out: LC50 (the source's name)
[27] = tested on: MCF7; test: Cytotoxicity against Homo sapiens (human) MCF7 cells assessed as cell growth at 10^-4 M after 48 hr by Alamar blue assay; conditions: MCF7, 48 h, read-out: Activity
[28] = tested on: NCI-H460; test: Cytotoxicity against Homo sapiens (human) NCI-H460 cells assessed as cell growth at 10^-4 M after 48 hr by Alamar blue assay; conditions: NCI-H460, 48 h, read-out: Activity

Nc1nc(Cl)c2ncn(Cc3ccccc3CCl)c2n1
LC50 (lethal concentration, 50% cell kill) [1]: 95.5 µM
TGI [1]: 44.7 µM
TGI [2]: 21.9 µM
CC50 [2]: 75.9 µM
LC50 [3]: > 100 µM
TGI [3]: 52.5 µM
LC50 [4]: > 100 µM
TGI [4]: 52.5 µM
LC50 (concentration killing 50% of cells) [5]: > 100 µM
TGI [5]: 19.5 µM
TGI [6]: 39.8 µM
CC50 [6]: 79.4 µM
LC50 (concentration killing 50% of cells) [7]: 74.1 µM
TGI [7]: 20.9 µM
LC50 [8]: > 100 µM
TGI [8]: 21.9 µM
LC50 [9]: > 100 µM
TGI [9]: 39.8 µM
TGI [10]: 23.5 µM
CC50 [10]: 64.6 µM
LC50 [11]: > 100 µM
TGI [11]: 27.5 µM
LC50 [12]: > 100 µM
TGI [12]: 83.2 µM
LC50 (50% lethal concentration) [13]: 57.5 µM
TGI [13]: 22.9 µM
LC50 [14]: > 100 µM
TGI [14]: 77.6 µM
LC50 [15]: 70.8 µM
TGI [15]: 32.4 µM
LC50 (concentration killing 50% of cells) [16]: 87.1 µM
TGI [16]: 24.6 µM
LC50 (concentration causing 50% net cell kill) [17]: > 100 µM
TGI [17]: 44.7 µM
TGI [18]: 36.3 µM
CC50 [18]: 75.9 µM
TGI [19]: 23.4 µM
CC50 [19]: 63.1 µM
TGI [20]: 14.5 µM
CC50 [20]: 97.2 µM
TGI [21]: 11.8 µM
CC50 [21]: > 100 µM
TGI [22]: 7.41 µM
CC50 [22]: > 100 µM
TGI [23]: 37.1 µM
CC50 [23]: > 100 µM
TGI [24]: 30.9 µM
CC50 [24]: > 100 µM
TGI [25]: > 100 µM
CC50 [25]: > 100 µM
TGI [26]: > 100 µM
CC50 [26]: > 100 µM
growth at 100 µM [27]: 0%
growth at 100 µM [28]: 0%

Nc1nc(Cl)c2ncn(Cc3ccc(CCl)cc3)c2n1
LC50 (lethal concentration, 50% cell kill) [1]: > 100 µM
TGI [1]: 85.1 µM
TGI [2]: 25.1 µM
CC50 [2]: 64.6 µM
LC50 [3]: > 100 µM
TGI [3]: 93.3 µM
LC50 [4]: 64.5 µM
TGI [4]: 30.9 µM
LC50 (concentration killing 50% of cells) [5]: > 100 µM
TGI [5]: 33.1 µM
TGI [6]: 14.8 µM
CC50 [6]: > 100 µM
LC50 (concentration killing 50% of cells) [7]: > 100 µM
TGI [7]: 44.7 µM
LC50 [8]: > 100 µM
TGI [8]: 43.6 µM
LC50 [9]: > 100 µM
TGI [9]: 38 µM
TGI [10]: 91.2 µM
CC50 [10]: > 100 µM
LC50 [11]: 46.8 µM
TGI [11]: 19.9 µM
LC50 [12]: > 100 µM
TGI [12]: 39.8 µM
LC50 (50% lethal concentration) [13]: 69.2 µM
TGI [13]: 24.6 µM
LC50 [14]: > 100 µM
TGI [14]: > 100 µM
LC50 [15]: 43.6 µM
TGI [15]: 19.5 µM
LC50 (concentration killing 50% of cells) [16]: > 100 µM
TGI [16]: 17 µM
LC50 (concentration causing 50% net cell kill) [17]: 55 µM
TGI [17]: 25.1 µM
TGI [18]: 40.7 µM
CC50 [18]: 97.7 µM
TGI [19]: 27.5 µM
CC50 [19]: 72.4 µM
TGI [20]: 8.32 µM
CC50 [20]: 38.9 µM
TGI [21]: 13.8 µM
CC50 [21]: 87.1 µM
TGI [22]: 19.9 µM
CC50 [22]: 67.6 µM
TGI [23]: 9.95 µM
CC50 [23]: 63.1 µM
TGI [24]: > 100 µM
CC50 [24]: > 100 µM
TGI [25]: > 100 µM
CC50 [25]: > 100 µM
TGI [26]: > 100 µM
CC50 [26]: > 100 µM
growth at 100 µM [27]: 0%
growth at 100 µM [28]: 0%
